The values below come from US7534809B2, “Phospho-indoles as HIV inhibitors” (priority 2004, dated 2009).

By IC50 is commonly meant the concentration at which inhibition is half-maximal. As a reminder, the solubility is the dissolved amount per volume that the medium holds. As a reminder, the AUC(0-inf) is the area under the concentration-time curve extrapolated to infinity. The term AUC(0-t) denotes the area under the concentration-time curve up to a stated or last time point. Usually Cmax stands for the highest concentration seen after dosing. Usually Tmax stands for the time from dosing to the highest level.

Data set [1] in a line: Human plasma protein binding, equilibrium dialysis. The class given is in vitro ADME. The note with it: pooled human plasma, 37° C., about 6 hours, 1 μM drug, read-out: Protein binding (human plasma) % Free. Here is the method:
The human plasma protein binding was determined using the Equilibrium Dialysis method. Dialysis was conducted with pooled human plasma at 37° C. for approximately 6 hours at a drug concentration of 1 μM. At the end of the dialysis, buffer samples from the buffer-side of the dialysis cell were collected and analyzed by LC/MS/MS for free drug concentration. For NNRTIs, a lower protein binding is more desirable.

In another data set the target is T1, CYP2D6 (Homo sapiens, UniProt P10635).
T1 construct: purchased BD Biosciences
T1 sequence (P10635 whole entry): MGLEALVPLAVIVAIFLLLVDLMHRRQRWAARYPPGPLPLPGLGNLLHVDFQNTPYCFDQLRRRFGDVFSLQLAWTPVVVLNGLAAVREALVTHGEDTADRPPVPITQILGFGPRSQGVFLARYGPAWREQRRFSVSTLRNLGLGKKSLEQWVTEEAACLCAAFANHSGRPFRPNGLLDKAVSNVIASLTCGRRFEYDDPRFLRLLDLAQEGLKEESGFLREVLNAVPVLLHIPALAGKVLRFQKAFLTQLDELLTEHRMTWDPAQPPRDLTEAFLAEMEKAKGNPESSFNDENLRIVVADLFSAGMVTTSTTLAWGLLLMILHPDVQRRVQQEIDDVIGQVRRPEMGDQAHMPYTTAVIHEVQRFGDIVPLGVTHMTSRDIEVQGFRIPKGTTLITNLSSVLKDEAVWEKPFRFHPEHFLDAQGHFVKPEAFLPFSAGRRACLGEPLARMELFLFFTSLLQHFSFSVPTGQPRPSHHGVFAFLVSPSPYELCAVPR
In words: CYP450 inhibition, CYP2D6/AMMC screening kit. In kind it is in vitro ADME. From the text:
(§1) In vitro CYP450 inhibition screening allows for the prediction of potential drug-drug interactions. […] Potency and rank order of the inhibition can be assessed by determination of the IC50 values for a particular isozyme.
(§2) CYP3A4 inhibition was screened using the CYP3A4/BFC high throughput inhibitor screening kit (BD Biosciences), CYP2D6 inhibition was screened using the CYP2D6/AMMC high throughput inhibitor screening kit (BD Biosciences), and CYP2C9 inhibition was screened using the P450-Glo™ Assay kit (Promega).

Data set [2] in a line: pH dependent aqueous solubility, shake-flask method. The class given is physicochemical. The note with it: aqueous solution, thermodynamic from solid, saturated concentration 1 mM. Here is the method:
The aqueous solubility of each compound was determined by the conventional shake-flask method at a saturated concentration of 1 mM. The flask (vial) was shaken for 3 hrs at ambient temperature, and then centrifuged. The supernatant was analyzed by HPLC with UV detection for solubility determination. In general, a higher aqueous solubility is more desirable for drug candidates.

Data set [3] in a line: Metabolic stability in dog liver microsomes. The class given is in vitro ADME. To be noted: 10 μM, 1 mg/mL microsomes, 37° C. An excerpt: (§3) The metabolic stability assay is to evaluate the stability of test compound in biological matrices. Data are useful in terms of understanding and predicting the elimination mechanisms of the test compound. CYP450-dependent metabolism of drugs can also vary widely from one species to another. Evaluating in vitro metabolism of a drug by liver microsomes from multiple species allows the comparison of metabolism in animal species to that of humans. This can help identify the most relevant animal model for PK and toxicology studies. The metabolic stability of a test compound was evaluated in vitro in liver microsomes of the rat, dog, monkey, and human. 10 μM of the test compound was pre-incubated for 5 min at 37° C. with 1 mg/mL liver microsomes in 0.1M Tris buffer, pH 7.4 containing 5 mM MgCl2 and 0.1 mM EDTA. Following pre-incubation, NADPH (final concentration of 3 mM) was added to start the reaction and samples incubated for 0 and 1 or 2 hours. After terminating the reaction, the supernatant was analyzed by HPLC-UV or LC/MS/MS for the disappearance of the parent and formation of metabolite(s). The %parent remaining was the peak area ratio of the 1 or 2 hr sample to the time 0 sample. In general, less metabolism (higher % parent values) is more desirable.
(In general: Microsomes from liver hold many membrane-bound enzymes, among them those of drug oxidation.)

Data set [4] is described as follows: Metabolic stability in human liver microsomes. In kind it is in vitro ADME. To be noted: 10 μM, 1 mg/mL microsomes, 37° C.
Excerpt: as §3

Data set [5] is described as follows: Metabolic stability in monkey liver microsomes. In kind it is in vitro ADME. To be noted: 10 μM, 1 mg/mL microsomes, 37° C.
Excerpt: as §3

For the next data set, the target named is T2, CYP2C9 (Homo sapiens, UniProt P11712).
T2 construct: purchased Promega
T2 sequence (P11712 whole entry): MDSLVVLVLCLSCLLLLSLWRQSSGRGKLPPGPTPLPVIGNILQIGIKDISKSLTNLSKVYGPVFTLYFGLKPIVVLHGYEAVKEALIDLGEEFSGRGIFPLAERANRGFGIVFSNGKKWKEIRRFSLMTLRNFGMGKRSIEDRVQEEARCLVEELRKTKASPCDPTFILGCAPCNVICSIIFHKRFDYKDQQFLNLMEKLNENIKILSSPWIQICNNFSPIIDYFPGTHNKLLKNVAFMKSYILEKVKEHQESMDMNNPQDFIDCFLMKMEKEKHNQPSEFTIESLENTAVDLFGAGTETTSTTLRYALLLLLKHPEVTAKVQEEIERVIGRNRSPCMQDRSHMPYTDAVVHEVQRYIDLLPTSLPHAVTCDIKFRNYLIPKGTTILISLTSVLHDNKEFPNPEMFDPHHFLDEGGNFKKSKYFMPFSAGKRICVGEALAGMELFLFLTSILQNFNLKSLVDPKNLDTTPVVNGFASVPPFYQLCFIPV
In words: CYP450 inhibition, CYP2C9 P450-Glo assay kit. In kind it is in vitro ADME.
Excerpt: as §1, §2

Data set [6] in a line: Metabolic stability in rat liver microsomes. In kind it is in vitro ADME. The note with it: 10 μM, 1 mg/mL microsomes, 37° C.
Excerpt: as §3

In another data set the target is T3, CYP3A4 (Homo sapiens, UniProt P08684).
T3 construct: purchased BD Biosciences
T3 sequence (P08684 whole entry): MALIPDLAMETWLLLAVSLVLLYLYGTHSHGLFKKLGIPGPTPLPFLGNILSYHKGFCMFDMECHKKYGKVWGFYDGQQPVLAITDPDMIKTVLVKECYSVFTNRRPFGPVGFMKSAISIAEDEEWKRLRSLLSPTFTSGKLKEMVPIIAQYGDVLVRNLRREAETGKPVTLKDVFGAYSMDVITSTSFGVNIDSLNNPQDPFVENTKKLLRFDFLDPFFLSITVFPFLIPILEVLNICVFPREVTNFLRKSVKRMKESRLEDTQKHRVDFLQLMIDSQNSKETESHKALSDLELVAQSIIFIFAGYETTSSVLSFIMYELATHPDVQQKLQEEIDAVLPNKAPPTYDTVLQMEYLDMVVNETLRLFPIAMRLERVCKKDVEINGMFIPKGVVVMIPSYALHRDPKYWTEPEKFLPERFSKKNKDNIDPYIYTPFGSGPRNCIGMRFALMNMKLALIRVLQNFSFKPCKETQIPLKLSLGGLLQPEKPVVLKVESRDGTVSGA
In words: CYP450 inhibition, CYP3A4/BFC screening kit. In kind it is in vitro ADME.
Excerpt: as §1, §2

The nature of data set [7]: In vitro metabolism in liver microsomes, metabolic pathway. To be noted: LC/MS/MS metabolite profiling. The class given is in vitro ADME, rat, dog, monkey, and human. Here is the method: Phase I biotransformation of a test compound is evaluated in this assay. Samples from the metabolic stability experiment were analyzed by LC/MS/MS for metabolite profiling and identification. Structures of metabolites were elucidated based on multiple MS/MS experiments such as full scan, neutral loss scan, and product ion scan. Metabolic pathways were then postulated based on the structures of major metabolites. For compounds from the phosphinate series, N-oxidation of the terminal pyridine ring is the predominant pathway, followed by the oxidation of the dimethyl-phenyl group, where the methyl group(s) is hydroxylated, further oxidized to an aldehyde, and finally to a carboxylic acid. The elucidation of metabolic pathways is important in terms of understanding the elimination mechanism of a test compound and assisting the design of new molecules with improved DM-PK profiles.

Data set [8] can be described thus: PK and oral bioavailability in the dog. In kind it is in vivo, Beagle dogs. To be noted: for half-life: PEG400, read-out: T½ (converted). Here is the method: (§4) The pharmacokinetics of a test compound was evaluated in Sprague-Dawley rats and Beagle dogs. A typical PK study involved dosing of 2 to 3 animals via a single IV bolus injection at 1 mg/kg and another 3 animals via a single oral gavage at 5 mg/kg. Blood samples were collected at various time points over a 24-hr period. Plasma was separated and analyzed for test compound and its metabolite(s) by LC/MS/MS. PK parameters were calculated from the plasma concentration—time profile using a noncompartmental method. Oral bioavailability (F) was calculated based on dose-normalized AUC values from oral and IV administration. Higher oral bioavailability values are better.

A short description of data set [9]: PK and oral bioavailability in the rat. The class given is in vivo, Sprague-Dawley rats. The note with it: IV, 1.0 mg/kg. Here is the method: as §4
Setting [10] is: pH 1, simulated gastric fluid, pH1, ambient temperature, read-out: Aqueous solubility pH1.
[11] abbreviates: pH 3, aqueous buffer, pH3, ambient temperature, read-out: Aqueous solubility pH3.
The mark [12] stands for this setting: pH 7, aqueous buffer, pH7, ambient temperature, read-out: Aqueous solubility pH7.
[13] abbreviates: pH 9, aqueous buffer, pH9, ambient temperature, read-out: Aqueous solubility pH9.
[14] abbreviates: Beagle, plasma, IV, 1.0 mg/kg, PEG400.
[15] abbreviates: Beagle, plasma, PO, 5.0 mg/kg, PEG400.

The structures appear in SMILES notation. Values after ≈ are worked out from the molar mass of the structure shown. Where two headings read alike, the source gives them in different places. Marks after values point to notes of the source that are not given here.

`COP(=O)(c1cc(C)cc(C)c1)c1c(C(=O)NCc2cc[n+]([O-])cc2)[nH]c2ccc(Cl)c(F)c12` (centres unmarked) [Compound B]: the fraction unbound at 6 h, 1 μM in [1] is 0.038. Further, the concentration for half-maximal inhibition (IC50) was over 10 µM against CYP2D6, over 10 µM at CYP2C9 and 1.04 µM against CYP3A4. Moreover, the solubility at 3 h in data set [2] (setting [10]) is 190 µM (≈ 95.4 µg/mL); in data set [2] (setting [11]), 170 µM (≈ 85.3 µg/mL); in data set [2] (setting [12]), 200 µM (≈ 100 µg/mL); in data set [2] (setting [13]), 190 µM (≈ 95.4 µg/mL). Further, the “Metabolic stability in liver microsomes % Parent after 2 hrs, Dog” value in data set [3] is 85%. In data set [4], the “Metabolic stability in liver microsomes % Parent after 2 hrs, Human” value turned out to be 94%. Besides, in data set [5], the “Metabolic stability in liver microsomes % Parent after 2 hrs, Monkey” value is on record as 63%. For the same compound, the “Metabolic stability in liver microsomes % Parent after 2 hrs, Rat” value in [6] is on record as 1%.

As to `COP(=O)(c1cc(C)cc(F)c1)c1c(C(=O)NCc2cc[n+]([O-])cc2)[nH]c2ccc(Cl)cc12` (centres unmarked) [Compound G], in [7], the “Metabolic pathway (in vitro)” value is recorded as “Hydroxylation to CH3OH— to CHO— to COOH—”. For the same compound, the fraction unbound at 6 h, 1 μM in [1] is 0.016. Moreover, the IC50 against CYP2D6 was over 10 µM; on CYP2C9 it was 8.85 µM; against CYP3A4 it was 1.14 µM. The “Metabolic stability in liver microsomes % Parent after 2 hrs, Dog” value in data set [3] is 77%. Besides, in data set [4], the “Metabolic stability in liver microsomes % Parent after 2 hrs, Human” value is 85%. For the same compound, the “Metabolic stability in liver microsomes % Parent after 2 hrs, Monkey” value in [5] was found to be 41%. Besides, the “Metabolic stability in liver microsomes % Parent after 2 hrs, Rat” value in [6] worked out at 24%.

On to `COP(=O)(C1=C(C(=O)NCc2ccncc2)N=C2C=CC(Cl)=CC21)c1cc(C)cc(C)c1` (centres unmarked) [Compound N], for which the fraction unbound at 6 h, 1 μM in [1] amounted to 0.002. Moreover, the results for the half-inhibitory concentration (IC50) on CYP2D6 and against CYP3A4 were 2.04 µM and 0.66 µM, respectively. Besides, the solubility at 3 h is over 1000 µM in data set [2] (setting [10]), 231 µM (≈ 108 µg/mL) in data set [2] (setting [11]), 2.1 µM (≈ 0.983 µg/mL) in data set [2] (setting [12]) and 1.7 µM (≈ 0.795 µg/mL) in data set [2] (setting [13]). Further, the “Metabolic stability in liver microsomes % Parent after 1 hr incubation, Dog” value in [3] (1 hr (footnote *)) worked out at 24%*. Further, in data set [4] (1 hr (footnote *)), the “Metabolic stability in liver microsomes % Parent after 1 hr incubation, Human” value is reported as 22%*. The “Metabolic stability in liver microsomes % Parent after 1 hr incubation, Monkey” value in data set [5] (1 hr (footnote *)) turned out to be 1%*. The “Metabolic stability in liver microsomes % Parent after 1 hr incubation, Rat” value in [6] (1 hr (footnote *)) was 1%*. Also, the AUC(0-inf) in data set [8] (setting [14]) was 970 ng·h/mL; in [8] (setting [15]) it was 139 ng·h/mL; in data set [9] (Sprague-Dawley, plasma, PEG400), 126 ng·h/mL. Further, the AUC(0-t) in data set [8] (setting [14]) was 924 ng·h/mL; in data set [8] (setting [15]), 116 ng·h/mL; in [9] (Sprague-Dawley, plasma, PEG400) it was 108 ng·h/mL. Further, the Cmax in [8] (setting [14]) is 407 ng/mL; in [8] (setting [15]) it was 60.9 ng/mL; in data set [9] (Sprague-Dawley, plasma, PEG400), 119 ng/mL. Besides, the half-life in data set [8] (Beagle, plasma, IV, 1.0 mg/kg) is 4.2 h; in data set [8] (Beagle, plasma, PO, 5.0 mg/kg), 2.8 h; in data set [9] (Sprague-Dawley, plasma, PEG400, read-out: T½ (converted)), 0.9 h. Besides, the Vd is 4.08 L/kg in [8] (Beagle, plasma, IV, 1.0 mg/kg, PEG400, read-out: Vss) and 9.59 L/kg in data set [9] (Sprague-Dawley, plasma, PEG400, read-out: Vss). Also, in [8] (setting [15]), the time to peak (Tmax) worked out at 0.7 h. In addition, the AUCinf/Dose in [8] (IV, 1.0 mg/kg, PEG400) worked out at 970.1; in data set [8] (PO, 5.0 mg/kg, PEG400) it was 27.7; in data set [9] (PEG400), 125.9. In addition, the CI in [8] (IV, 1.0 mg/kg, PEG400) was found to be 19.872 mL/min/kg; in [9] (PEG400), 133.2 mL/min/kg. Besides, the F in [8] (PO, 5.0 mg/kg, PEG400, oral bioavailability) was 2.9%.

For `COP(=O)(C1=C(C(=O)NCc2ccncc2)N=C2C=CC(Cl)=C(F)C21)c1cc(C)cc(C)c1` (centres unmarked) [Compound O], in [1], the fraction unbound at 6 h, 1 μM came to 0.009. The IC50 worked out at 1.35 µM on CYP2D6, 5.35 µM at CYP2C9 and 0.81 µM against CYP3A4. In addition, the solubility at 3 h in data set [2] (setting [10]) is 820 µM (≈ 398 µg/mL); in data set [2] (setting [11]), 590 µM (≈ 287 µg/mL); in data set [2] (setting [12]), 9.1 µM (≈ 4.42 µg/mL); in data set [2] (setting [13]), 10.1 µM (≈ 4.91 µg/mL). The “Metabolic stability in liver microsomes % Parent after 2 hrs, Dog” value in data set [3] is reported as 29%. Moreover, the “Metabolic stability in liver microsomes % Parent after 2 hrs, Human” value in data set [4] was 15%. Moreover, the “Metabolic stability in liver microsomes % Parent after 2 hrs, Monkey” value in data set [5] came to 1%. Also, in data set [6], the “Metabolic stability in liver microsomes % Parent after 2 hrs, Rat” value stood at 2%.

As to `COP(=O)(C1=C(C(=O)NCc2ccncc2)N=C2C=CC(Cl)=CC21)c1cc(C)cc(F)c1` (centres unmarked) [Compound P], the fraction unbound at 6 h, 1 μM in data set [1] is under 0.005. Also, the half-inhibitory concentration (IC50) at CYP2D6 is 2.01 µM; against CYP2C9, 1.68 µM; at CYP3A4, 0.77 µM. Besides, the solubility at 3 h in [2] (setting [10]) is over 1000 µM; in [2] (setting [11]) it was 724 µM (≈ 342 µg/mL); in data set [2] (setting [12]), 24 µM (≈ 11.3 µg/mL); in data set [2] (setting [13]) it was 33.8 µM (≈ 15.9 µg/mL). In data set [3], the “Metabolic stability in liver microsomes % Parent after 2 hrs, Dog” value stood at 20%. Further, the “Metabolic stability in liver microsomes % Parent after 2 hrs, Human” value in data set [4] was found to be 3%. The “Metabolic stability in liver microsomes % Parent after 2 hrs, Monkey” value in [5] stood at 3%. Besides, the “Metabolic stability in liver microsomes % Parent after 2 hrs, Rat” value in [6] is 0%.
